Where “and” joins values, the source holds several entries; their conditions need not be identical. Equal values may be shown once. Blank lines part the entries; values can stand above or below the compound they belong to.
Tested on: 439559-082-T-J2-PDC spheroids viability
Test: Anticancer human tumor 439559-082-T-J2-PDC patient-derived colon adenocarcinoma cell line growth inhibition [GQUAD]
Conditions: for viability, T/C: stronger effect = lower value
Source text: DNA G-quadruplex Stabilizer Agents in Combinations in Complex Spheroids
A high-throughput screen of multi-cell type tumor spheroids was designed to identify active combinations of DNA G-quadruplex stabilizer agents and targeted small molecules. Complex spheroids include a stromal component modeled by human endothelial cells (HUVEC) and fibroblasts modeled by human mesenchymal stem cells (MSCs). The concentration ranges selected for each drug and investigational agent were based upon clinically achievable concentrations if the clinical Cmax of the agent was known.
Compounds. The drugs and investigational agents: pidnarulex (CX-5461; NSC782164), APTO-253 (NSC789042), BRACO-19 (NSC847499), peposertib (NSC802822), ceralasertib (NSC780249), elimusertib (NSC800525), camonsertib (NSC841442), AZD-1390 (NSC803789), olaparib (NSC753686), talazoparib (NSC767125), ART-558 (NSC835418), sotorasib (NSC818433), MRTX-1133 (NSC836407), SN-38 (NSC673596), topotecan (NSC609699), etoposide (NSC141540), doxorubicin (NSC123127), gemcitabine (NSC613327), 5-fluorouracil (NSC19893), paclitaxel (NSC125973), vemurafenib (NSC761431), panobinostat (NSC761190), R-306465 (JNJ-16241199; NSC773264), adavosertib (NSC754352), TP-3654 (NSC805149), carboplatin (NSC241240), KSQ-4279 (NSC840948), and staurosporine (NSC755774) were obtained from the National Cancer Institute (NCI) Developmental Therapeutics Program Chemical Repository (34). The FDA-approved anticancer drug set is available from the NCI Developmental Therapeutics Program. […] The stock solutions were prepared in dimethyl sulfoxide (DMSO, Sigma-Aldrich, St. Louis, MO, cat. D2650) at 800-fold the tested concentration and stored at -70 degrees C prior to their use. All drugs and investigational agents were tested over a range starting from a high concentration at or near the clinical Cmax and decreasing in half-log increments. If the clinical Cmax for an agent had not been determined, the highest concentration tested was 10 microM.
2.3 Cell Culture. All cells were maintained in an incubator at 37 degrees C and 5% CO2 with 95% humidity. The PDC lines were cultured according to standard operating procedures established by the NCI PDMR. All PDCs were thawed and cultured in Matrigel-coated flasks prepared with a working solution of 1X Ham's F-12 nutrient mix, without supplementation (Invitrogen, cat. 11765054), 100 U/mL penicillin-streptomycin (Invitrogen, cat. 15140122), and 2.5% Matrigel (Corning Inc., cat. 354248) for the first three passages. The 857933-349-R-J2-PDC line was cultured in 6C/Colon 1B media, which includes advanced DMEM/F-12 (Thermo Fisher Scientific, cat. 12634028), 10 mM HEPES (Thermo Fisher Scientific, cat. 15630080), 1X GlutaMAX supplement (Thermo Fisher Scientific, cat. 35050061), 0.1 mg/mL primocin (InvivoGen, cat. ant-pm-2), 10% defined fetal bovine serum, heat inactivated (HyClone Laboratories Inc., cat. SH30070.03HI), 50% L-WRN conditioned media (ATCC, cat. CRL-3276), 1.25 mM N-Acetyl-L-cysteine (Sigma-Aldrich, cat. A9165), 10 mM nicotinamide (Sigma-Aldrich, cat. N0636), 1X B-27 supplement (Thermo Fisher Scientific, cat. 17504044), 1X N-2 supplement (Thermo Fisher Scientific, cat. 17502048), 10 microM Y-27632 dihydrochloride (Tocris Bioscience, cat. 1254), and 50 ng/mL human EGF recombinant protein (Thermo Fisher Scientific, cat. PHG0311). The 485176-168-R4-J1-PDC line was cultured in Panc media, which includes all 6C/Colon 1B media components plus 100 ng/mL human FGF-10 (Thermo Fisher Scientific, cat. 100-26), 500 nM SB-431542 (Selleckchem, cat. S1067), and gastrin (Tocris, cat. 3006).
[…]
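Also: spheroids exposed to the agents for 7 days before readout.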
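For viability, T/C in this document: percent of luminescence signal in DMSO vehicle wells taken as 100% viability.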

IC50 (curve of compound): 444 nM and 249 nM and 240 nM
Structure (SMILES): Nc1ccn(C2OC(CO)C(O)C2(F)F)c(=O)n1 (stereo unspecified)
viability, T/C (compound 0.0316 µM): 83.6% and 83.2% and 89.5%
viability, T/C (compound 0.1 µM): 74.3% and 67.4% and 60.4%
viability, T/C (compound 0.316 µM): 53.7% and 46.2% and 49.7%
viability, T/C (compound 1 µM): 38.5% and 30.7% and 32.6%
viability, T/C (compound 3.16 µM): 28.2% and 25.8% and 28.4%
viability, T/C (compound 10 µM): 22.9% and 26.9% and 23.2%

Structure (SMILES): O=c1[nH]cc(F)c(=O)[nH]1 + CN(C)c1ccc(Nc2c3ccc(NC(=O)CCN4CCCC4)cc3nc3cc(NC(=O)CCN4CCCC4)ccc23)cc1
IC50 (curve of first compound, second compound 0.0316 µM): > 10000 nM
IC50 (curve of first compound, second compound 0.1 µM): > 10000 nM
IC50 (curve of first compound, second compound 0.316 µM): > 10000 nM
IC50 (curve of first compound, second compound 1 µM): > 10000 nM
IC50 (curve of first compound, second compound 3.16 µM): > 10000 nM
IC50 (curve of first compound, second compound 10 µM): > 10000 nM
viability, T/C (second compound 0.0316 µM, first compound 0.0316 µM): 101%
viability, T/C (second compound 0.0316 µM, first compound 0.1 µM): 103%
viability, T/C (second compound 0.0316 µM, first compound 0.316 µM): 86.6%
viability, T/C (second compound 0.0316 µM, first compound 1 µM): 81.2%
viability, T/C (second compound 0.0316 µM, first compound 3.16 µM): 75.7%
viability, T/C (second compound 0.0316 µM, first compound 10 µM): 76%
viability, T/C (second compound 0.1 µM, first compound 0.0316 µM): 115%
viability, T/C (second compound 0.1 µM, first compound 0.1 µM): 106%
viability, T/C (second compound 0.1 µM, first compound 0.316 µM): 89%
viability, T/C (second compound 0.1 µM, first compound 1 µM): 84.1%
viability, T/C (second compound 0.1 µM, first compound 3.16 µM): 77.2%
viability, T/C (second compound 0.1 µM, first compound 10 µM): 69.1%
viability, T/C (second compound 0.316 µM, first compound 0.0316 µM): 98.2%
viability, T/C (second compound 0.316 µM, first compound 0.1 µM): 105%
viability, T/C (second compound 0.316 µM, first compound 0.316 µM): 85.9%
viability, T/C (second compound 0.316 µM, first compound 1 µM): 80.4%
viability, T/C (second compound 0.316 µM, first compound 3.16 µM): 75%
viability, T/C (second compound 0.316 µM, first compound 10 µM): 75.2%
viability, T/C (second compound 1 µM, first compound 0.0316 µM): 97.2%
viability, T/C (second compound 1 µM, first compound 0.1 µM): 104%
viability, T/C (second compound 1 µM, first compound 0.316 µM): 89%
viability, T/C (second compound 1 µM, first compound 1 µM): 81.3%
viability, T/C (second compound 1 µM, first compound 3.16 µM): 74.6%
viability, T/C (second compound 1 µM, first compound 10 µM): 81.8%
viability, T/C (second compound 3.16 µM, first compound 0.0316 µM): 88.8%
viability, T/C (second compound 3.16 µM, first compound 0.1 µM): 102%
viability, T/C (second compound 3.16 µM, first compound 0.316 µM): 85.5%
viability, T/C (second compound 3.16 µM, first compound 1 µM): 73.9%
viability, T/C (second compound 3.16 µM, first compound 3.16 µM): 73.3%
viability, T/C (second compound 3.16 µM, first compound 10 µM): 72.1%
viability, T/C (second compound 10 µM, first compound 0.0316 µM): 96.4%
viability, T/C (second compound 10 µM, first compound 0.1 µM): 93.1%
viability, T/C (second compound 10 µM, first compound 0.316 µM): 81.5%
viability, T/C (second compound 10 µM, first compound 1 µM): 74.6%
viability, T/C (second compound 10 µM, first compound 3.16 µM): 70.2%
viability, T/C (second compound 10 µM, first compound 10 µM): 73.5%

IC50 (curve of compound): 280 nM and 192 nM and 220 nM
Structure (SMILES): CC1COCCN1c1cc(-c2ccnn2C)c2ccnc(-c3ccn[nH]3)c2n1 (stereo unspecified)
viability, T/C (compound 0.0316 µM): 97.7% and 97.6% and 93.5%
viability, T/C (compound 0.1 µM): 80.6% and 68.1% and 73.8%
viability, T/C (compound 0.316 µM): 46.8% and 35.7% and 39.2%
viability, T/C (compound 1 µM): 34.3% and 35.7% and 31.6%
viability, T/C (compound 3.16 µM): 37.7% and 30.7% and 31.6%
viability, T/C (compound 10 µM): 33.5% and 28.8% and 34%
